From ChEMBL document CHEMBL1201862, “PubChem BioAssay data set” (2004) come the findings set out here.

Common to all, as to format: functional
The target in experiment [1] is T1, Cannabinoid receptor 2 (Homo sapiens, UniProt P34972). Kind of experiment: SAR analysis of antagonists of the Cannabinoid Receptor 2 using an Image-Based Assay - Set 2. [Related pubchem assays (depositor defined):AID1961, AID1965].
The target in experiment [2] is T2, Cannabinoid receptor 1 (Homo sapiens, UniProt P21554). Kind of experiment: SAR analysis of agonists of the Cannabinoid Receptor 1 using an Image-Based Assay - Set 3. [Related pubchem assays (depositor defined):AID1961, AID1965].
T2 sequence (P21554 whole entry): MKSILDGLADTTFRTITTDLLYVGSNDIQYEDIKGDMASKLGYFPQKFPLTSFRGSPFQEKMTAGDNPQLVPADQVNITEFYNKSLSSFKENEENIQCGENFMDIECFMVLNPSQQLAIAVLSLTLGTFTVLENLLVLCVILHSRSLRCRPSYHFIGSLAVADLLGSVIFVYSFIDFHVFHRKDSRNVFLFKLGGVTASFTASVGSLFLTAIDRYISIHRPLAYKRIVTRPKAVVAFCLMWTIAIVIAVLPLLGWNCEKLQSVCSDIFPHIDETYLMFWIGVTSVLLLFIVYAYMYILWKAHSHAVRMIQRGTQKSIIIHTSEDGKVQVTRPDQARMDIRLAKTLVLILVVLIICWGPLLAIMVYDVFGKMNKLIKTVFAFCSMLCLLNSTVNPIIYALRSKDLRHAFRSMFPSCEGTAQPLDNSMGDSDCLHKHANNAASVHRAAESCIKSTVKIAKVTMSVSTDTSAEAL
Experiment [3] deals with T3, G-protein coupled receptor 35 (Homo sapiens, UniProt Q9HC97). As to the kind of experiment: SAR analysis of Agonists of the GPR35 Receptor using an Image-Based Assay - Set 3. [Related pubchem assays (depositor defined):AID1961, AID1965].
T3 sequence (Q9HC97 whole entry): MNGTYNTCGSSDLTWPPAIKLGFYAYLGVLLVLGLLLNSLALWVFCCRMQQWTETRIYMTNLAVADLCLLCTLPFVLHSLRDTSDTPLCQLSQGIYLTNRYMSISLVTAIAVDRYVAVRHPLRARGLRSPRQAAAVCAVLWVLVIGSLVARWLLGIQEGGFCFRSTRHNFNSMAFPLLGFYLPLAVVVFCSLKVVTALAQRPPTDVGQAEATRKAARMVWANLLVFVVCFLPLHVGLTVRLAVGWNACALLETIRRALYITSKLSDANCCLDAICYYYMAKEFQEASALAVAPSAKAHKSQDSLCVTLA
In experiment [4] the target is T2, Cannabinoid receptor 1. As to the kind of experiment: SAR analysis of antagonists of the Cannabinoid Receptor 1 using an Image-Based Assay - Set 3. [Related pubchem assays (depositor defined):AID1961, AID1965].
The target of experiment [5] is T3, G-protein coupled receptor 35. Kind of experiment: SAR analysis of Antagonists of the GPR35 Receptor using an Image-Based Assay - Set 4. [Related pubchem assays (depositor defined):[…]].
Experiment [6] has as its target G-protein coupled receptor 55 (Homo sapiens, UniProt Q9Y2T6). Kind of experiment: SAR analysis of selective Agonists of GPR55 using an Image-Based Assay - Set 2. [Related pubchem assays (depositor defined):AID1961, AID1965].
Experiment [7] addresses T1, Cannabinoid receptor 2. As to the kind of experiment: SAR analysis of agonists of the Cannabinoid Receptor 2 using an Image-Based Assay - Set 2. [Related pubchem assays (depositor defined):AID1961, AID1965].
For experiment [8], the target named is DNA dC->dU-editing enzyme APOBEC-3G (Homo sapiens, UniProt Q9HC16).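 Further: Dose-response counterscreen measuring inhibition of APOBEC3G DNA deaminase activity, run while confirming APOBEC3A inhibitors.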
Chain of DNA dC->dU-editing enzyme APOBEC-3G (Q9HC16 whole entry): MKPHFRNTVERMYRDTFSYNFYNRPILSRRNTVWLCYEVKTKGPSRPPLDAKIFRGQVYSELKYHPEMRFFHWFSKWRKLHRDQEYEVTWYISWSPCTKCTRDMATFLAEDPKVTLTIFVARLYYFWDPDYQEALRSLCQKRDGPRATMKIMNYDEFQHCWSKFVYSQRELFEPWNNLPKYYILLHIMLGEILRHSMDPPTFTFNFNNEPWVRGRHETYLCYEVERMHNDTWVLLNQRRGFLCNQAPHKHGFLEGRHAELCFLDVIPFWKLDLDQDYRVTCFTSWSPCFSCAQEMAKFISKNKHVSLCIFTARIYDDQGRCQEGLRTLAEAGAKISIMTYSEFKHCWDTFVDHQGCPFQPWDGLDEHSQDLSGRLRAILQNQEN
For experiment [9], the target named is Tyrosine-protein phosphatase non-receptor type 5 (Homo sapiens, UniProt P54829). Kind of experiment: PTPN5 enzyme inhibition – biochemical, fluorescence intensity, uHTS hits, confirmation (AID 602372). The conditions noted are these: read-out: IC50_Mean.
Chain of Tyrosine-protein phosphatase non-receptor type 5 (P54829 whole entry): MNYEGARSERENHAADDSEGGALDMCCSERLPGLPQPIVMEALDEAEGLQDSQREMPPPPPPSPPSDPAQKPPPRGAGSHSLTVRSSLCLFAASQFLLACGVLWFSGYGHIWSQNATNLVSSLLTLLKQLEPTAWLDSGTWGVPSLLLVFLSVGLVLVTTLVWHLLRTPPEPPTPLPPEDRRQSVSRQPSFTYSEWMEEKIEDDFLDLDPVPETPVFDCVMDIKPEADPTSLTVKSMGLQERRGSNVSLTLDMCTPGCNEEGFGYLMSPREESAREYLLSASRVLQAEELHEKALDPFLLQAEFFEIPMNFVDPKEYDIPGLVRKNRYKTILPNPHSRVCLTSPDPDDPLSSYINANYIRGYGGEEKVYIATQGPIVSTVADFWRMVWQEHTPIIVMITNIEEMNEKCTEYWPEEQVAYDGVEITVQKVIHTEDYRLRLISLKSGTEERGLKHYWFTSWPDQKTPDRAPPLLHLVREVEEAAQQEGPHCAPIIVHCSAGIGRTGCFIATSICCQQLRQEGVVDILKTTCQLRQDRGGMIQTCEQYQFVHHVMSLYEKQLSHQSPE
Experiment [10] concerns the target Dual specificity protein phosphatase 3 (Homo sapiens, UniProt P51452). Kind of experiment: VHR phosphatase inhibition, dose response, selectivity assay for STEP inhibitor project, biochemical (AID 602374). The following applies: read-out: IC50_Mean.
Experiment [11] deals with DNA dC->dU-editing enzyme APOBEC-3A (Homo sapiens, UniProt P31941). As to the kind of experiment: Dose Response confirmation of small molecule APOBEC3A DNA Deaminase Inhibitors via a fluorescence-based single-stranded DNA deaminase assay. [Related pubchem assays (depositor defined):AID493011, AID493024].
Chain of DNA dC->dU-editing enzyme APOBEC-3A (P31941 whole entry): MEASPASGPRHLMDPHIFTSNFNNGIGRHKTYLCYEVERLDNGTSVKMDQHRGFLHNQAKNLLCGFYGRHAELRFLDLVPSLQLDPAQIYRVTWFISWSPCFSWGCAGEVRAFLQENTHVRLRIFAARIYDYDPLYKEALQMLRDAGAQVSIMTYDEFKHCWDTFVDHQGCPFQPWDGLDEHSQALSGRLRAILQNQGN
The target of experiment [12] is Tyrosine-protein phosphatase non-receptor type 11 (Homo sapiens, UniProt Q06124). As to the kind of experiment: PTPN11 enzyme inhibitors – biochemical, selectivity assay for STEP inhibitor project, dose response (AID 602367). The conditions noted are these: read-out: IC50_Mean.
Chain of Tyrosine-protein phosphatase non-receptor type 11 (Q06124 whole entry, the tested form may be a part): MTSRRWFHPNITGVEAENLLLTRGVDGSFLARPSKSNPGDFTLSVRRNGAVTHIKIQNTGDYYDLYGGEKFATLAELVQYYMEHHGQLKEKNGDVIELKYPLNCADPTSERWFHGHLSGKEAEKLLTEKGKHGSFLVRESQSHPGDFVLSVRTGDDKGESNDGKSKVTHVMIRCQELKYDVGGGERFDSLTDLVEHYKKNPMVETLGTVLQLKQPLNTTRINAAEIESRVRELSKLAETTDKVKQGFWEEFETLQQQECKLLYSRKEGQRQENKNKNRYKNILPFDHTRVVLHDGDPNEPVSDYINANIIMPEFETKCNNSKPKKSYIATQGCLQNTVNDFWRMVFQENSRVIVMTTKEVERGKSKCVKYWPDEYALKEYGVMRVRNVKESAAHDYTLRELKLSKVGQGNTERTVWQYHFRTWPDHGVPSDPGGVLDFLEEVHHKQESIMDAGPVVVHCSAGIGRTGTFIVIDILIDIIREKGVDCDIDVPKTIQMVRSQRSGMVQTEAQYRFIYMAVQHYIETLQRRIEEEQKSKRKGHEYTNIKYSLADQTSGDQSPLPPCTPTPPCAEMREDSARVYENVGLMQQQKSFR
Experiment [13] deals with T4, Carboxy-terminal domain RNA polymerase II polypeptide A small phosphatase 1 (Homo sapiens, UniProt Q9GZU7).
T4 sequence (Q9GZU7 whole entry): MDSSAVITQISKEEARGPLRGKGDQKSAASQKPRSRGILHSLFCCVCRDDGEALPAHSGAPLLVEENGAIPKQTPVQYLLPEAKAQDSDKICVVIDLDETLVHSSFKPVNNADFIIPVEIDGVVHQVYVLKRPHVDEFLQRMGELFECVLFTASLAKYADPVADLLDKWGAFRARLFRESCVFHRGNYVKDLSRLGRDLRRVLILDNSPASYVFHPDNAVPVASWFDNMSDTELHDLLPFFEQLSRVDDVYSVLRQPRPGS
As to the kind of experiment: CTDSP1 inhibitors, concentration-response, biochemical, absorbance readout, ultra-high-throughput screen actives (AID 540297).

Calls of active or inactive are those of the source. A value given as a limit tells only on which side of the number the result lay.

T1 sequence (P34972 whole entry): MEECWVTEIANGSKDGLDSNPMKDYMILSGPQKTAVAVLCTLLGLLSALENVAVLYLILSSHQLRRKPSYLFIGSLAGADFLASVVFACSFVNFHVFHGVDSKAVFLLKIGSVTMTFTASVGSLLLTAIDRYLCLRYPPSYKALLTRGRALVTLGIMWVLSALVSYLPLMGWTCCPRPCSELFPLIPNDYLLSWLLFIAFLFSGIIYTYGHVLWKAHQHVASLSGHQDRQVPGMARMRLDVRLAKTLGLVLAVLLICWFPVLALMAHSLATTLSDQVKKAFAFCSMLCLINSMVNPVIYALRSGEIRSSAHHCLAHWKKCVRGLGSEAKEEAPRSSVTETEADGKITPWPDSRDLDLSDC
Chain of G-protein coupled receptor 55 (Q9Y2T6 whole entry): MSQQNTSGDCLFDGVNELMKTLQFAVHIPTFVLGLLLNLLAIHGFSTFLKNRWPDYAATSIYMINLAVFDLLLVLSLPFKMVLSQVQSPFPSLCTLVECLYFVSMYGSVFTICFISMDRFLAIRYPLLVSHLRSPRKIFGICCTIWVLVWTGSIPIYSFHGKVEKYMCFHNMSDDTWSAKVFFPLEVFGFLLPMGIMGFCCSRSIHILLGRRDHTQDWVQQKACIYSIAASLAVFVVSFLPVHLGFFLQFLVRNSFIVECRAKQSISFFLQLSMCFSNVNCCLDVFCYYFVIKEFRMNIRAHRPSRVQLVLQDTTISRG
Chain of Dual specificity protein phosphatase 3 (P51452 whole entry): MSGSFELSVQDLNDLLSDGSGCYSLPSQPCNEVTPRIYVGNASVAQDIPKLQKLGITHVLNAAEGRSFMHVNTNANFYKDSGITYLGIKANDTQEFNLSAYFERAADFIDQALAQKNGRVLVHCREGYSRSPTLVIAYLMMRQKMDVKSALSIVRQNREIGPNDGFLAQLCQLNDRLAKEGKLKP

A word on the EC50: it is the concentration that produces a half-maximal response. In the case of `COc1ccc(S(=O)(=O)N2CCOCC2)cc1NC(=O)c1ccc(OC(F)F)cc1`, the IC50 in experiment [1], in experiment [4] and in experiment [5] was > 32 µM (inactive) each time. Besides, the EC50 in [2], in [3], in experiment [6] and in experiment [7] was > 32 µM (inactive) each time.
Consider `COc1cccc(N2[C@@H](CC(=O)O)c3ccc(/C=C/C(=O)O)cc3S2(=O)=O)c1`, for which the IC50 in experiment [8] is 41.2 µM (active); in experiment [9] it was 52.1 µM (inactive); in experiment [10], 2.49 µM (active); in experiment [11] it was 12.2 µM (active); in [12], 0.933 µM (active); in experiment [13] it was 2.88 µM (active).
